The values below come from ChEMBL document CHEMBL1201862, “PubChem BioAssay data set” (2004).

Active and inactive are the calls of the source. Rule as the data show it, for most assays here: actives have a measured EC50 and inactives only a lower limit. Residues, ends and D or L forms follow the SMILES beside them. *: point of attachment. Boc = CC(C)(C)OC(=O)*; Bn = c1ccc(C*)cc1 Bounds are passed on as bounds.

Broadly, the EC50 is the concentration that produces a half-maximal response. One may read the AC50 as the concentration at which the activity in the assay is half-maximal.

In assay [1] the target is T1, RNA-binding protein pos-1 (Caenorhabditis elegans, UniProt G5EF15).
T1 sequence (G5EF15 whole entry): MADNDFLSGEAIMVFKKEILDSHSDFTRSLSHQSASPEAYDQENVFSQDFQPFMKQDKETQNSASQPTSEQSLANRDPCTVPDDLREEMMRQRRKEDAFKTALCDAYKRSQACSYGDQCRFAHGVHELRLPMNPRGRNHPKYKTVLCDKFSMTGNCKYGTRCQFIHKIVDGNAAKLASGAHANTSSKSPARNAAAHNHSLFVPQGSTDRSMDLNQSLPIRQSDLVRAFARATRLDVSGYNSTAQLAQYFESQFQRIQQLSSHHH
Briefly: inhibitors of POS-1/mex-3 RNA binding, dose response, biochemical, fluorescence polarization (AID 1964).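 Also: purified POS-1 fused to maltose binding protein made in E. coli; potency of compounds blocking POS-1 binding to fluorescent RNA.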

The target in assay [2] is T2, Zinc finger protein mex-5 (Caenorhabditis elegans, UniProt Q9XUB2).
T2 sequence (Q9XUB2 whole entry): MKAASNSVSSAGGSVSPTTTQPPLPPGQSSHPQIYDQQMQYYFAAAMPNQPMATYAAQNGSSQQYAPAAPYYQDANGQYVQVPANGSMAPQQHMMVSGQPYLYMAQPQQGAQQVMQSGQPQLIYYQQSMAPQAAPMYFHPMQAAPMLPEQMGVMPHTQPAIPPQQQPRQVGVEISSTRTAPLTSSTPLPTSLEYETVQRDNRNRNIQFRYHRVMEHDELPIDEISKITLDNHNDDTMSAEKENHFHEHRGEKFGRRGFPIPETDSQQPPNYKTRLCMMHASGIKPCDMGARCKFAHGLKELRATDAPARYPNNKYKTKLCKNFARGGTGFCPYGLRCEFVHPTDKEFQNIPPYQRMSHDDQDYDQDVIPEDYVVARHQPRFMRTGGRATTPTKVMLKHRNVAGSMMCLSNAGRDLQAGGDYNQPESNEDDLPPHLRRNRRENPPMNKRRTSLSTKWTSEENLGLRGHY
Briefly: MEX-5/TCR-2 RNA interaction inhibitors, dose response, biochemical, C. elegans, fluorescence polarization (AID 1960). A general note: In fluorescence polarisation assays a small probe gives low polarisation when free and higher when bound to something large.

Assay [3] deals with H4. Nature of the assay: Luminescence Cell-Based Dose Response HTS to Identify Activators of 5'UTR Stem-Loop Driven Prion Protein mRNA Translation in H4 Neuroglioblastoma Cells. [Related pubchem assays: 1829 (Project Summary), 1814 (Primary HTS)]. It is filed as functional. The conditions noted are these: Homo sapiens.
Assay [4] concerns Streptococcus sp. 'group A'. Briefly: growth inhibition of control SK(-) GAS strain, dose response, counter-screen for streptokinase expression inhibitor project, luminescence, kanamycin, BacTiterGlo, confirmation (AID 1900). Type of assay: functional, organism-based.
For assay [5], the target named is T3, Streptokinase A (Streptococcus pyogenes serotype M1, UniProt P10520).
T3 sequence (P10520 whole entry): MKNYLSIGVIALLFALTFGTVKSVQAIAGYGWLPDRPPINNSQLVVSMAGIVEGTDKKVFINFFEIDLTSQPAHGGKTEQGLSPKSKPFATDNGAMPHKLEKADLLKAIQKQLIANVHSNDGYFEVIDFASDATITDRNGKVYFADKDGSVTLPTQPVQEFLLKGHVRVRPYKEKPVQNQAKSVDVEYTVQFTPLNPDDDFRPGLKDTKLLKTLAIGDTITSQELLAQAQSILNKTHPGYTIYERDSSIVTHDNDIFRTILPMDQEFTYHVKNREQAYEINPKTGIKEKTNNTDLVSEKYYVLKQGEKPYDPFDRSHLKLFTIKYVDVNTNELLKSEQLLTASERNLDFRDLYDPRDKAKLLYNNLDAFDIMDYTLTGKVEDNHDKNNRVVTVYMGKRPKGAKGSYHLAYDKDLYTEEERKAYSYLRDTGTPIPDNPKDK
Nature of the assay: S. pyogenes streptokinase expression inhibitors, potency, dose response, plasminogen activation absorbance, OD405 (AID 1914).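 Also: secreted streptokinase activity via plasminogen activation per viability signal from cell pellet.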 Type of assay: functional, Streptococcus pyogenes M1 GAS.

For assay [6], the system named is Streptococcus. Briefly: Group A Streptococcus viability loss, dose response, counter-screen for streptokinase expression inhibitor project, luminescence, BacTiterGlo (AID 1915).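 Also: potency for reduction of bacterial viability or growth.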 Type of assay: functional, organism-based. (Counterscreens check selectivity or assay interference.)
The target of assay [7] is Cytochrome P450 2C9 (Homo sapiens, UniProt P11712).
Cytochrome P450 2C9, sequence (P11712 whole entry): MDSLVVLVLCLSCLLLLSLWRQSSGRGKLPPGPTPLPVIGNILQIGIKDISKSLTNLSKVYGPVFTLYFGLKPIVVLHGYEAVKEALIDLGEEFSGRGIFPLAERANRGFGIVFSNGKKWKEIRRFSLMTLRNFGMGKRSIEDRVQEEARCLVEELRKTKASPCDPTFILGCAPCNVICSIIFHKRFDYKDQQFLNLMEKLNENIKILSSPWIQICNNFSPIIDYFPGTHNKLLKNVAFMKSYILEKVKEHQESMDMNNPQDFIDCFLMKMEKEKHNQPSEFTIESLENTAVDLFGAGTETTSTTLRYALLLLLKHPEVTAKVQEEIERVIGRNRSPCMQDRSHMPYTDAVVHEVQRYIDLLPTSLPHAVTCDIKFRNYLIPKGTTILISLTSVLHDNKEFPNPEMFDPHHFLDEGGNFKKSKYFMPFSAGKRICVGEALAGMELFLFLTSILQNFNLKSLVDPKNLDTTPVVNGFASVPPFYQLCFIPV
The nature of assay [8]: Luminescence Cell-Based Dose Retest to Confirm Inhibitors of Cancer Stem Cells. [Related pubchem assays (depositor defined):AID2717, AID2721]. It is filed as functional. The conditions noted are these: Homo sapiens.
A short description of assay [9]: NIH-3T3 fibroblast cytotoxicity, dose response, cytotoxicity control, cell-based, fluorescence, Alamar Blue, secondary assay (AID 2327).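 Also: NIH-3T3 mouse fibroblasts cultured with fluconazole at 8 µg/mL.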 It is filed as functional. In general terms: Alamar Blue is a resazurin reagent that responds to reducing activity.
Assay [10] can be described thus: C. albicans growth with fluconazole, confirmation, fluorescence, retest (AID 2467). Type of assay: functional, cell-based.
Assay [11] is described as follows: Luminescence Cell-Based Dose Response HTS to Identify Activators of Luciferase Translation or Activity in H4 […] Cells. [Related pubchem assays: 1829 (Project Summary), 1814 (Primary HTS)]. Type of assay: functional.
Assay [12] relates to INS1. Briefly: beta cell apoptosis inhibitors, cytokine rescue, dose response, luminescence, retest (AID 449756).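 Also: cell death triggered by IL-1 beta plus TNF-alpha plus IFN-gamma mixture; protective hits raise ATP signal compared with cytokine alone wells.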 It is filed as functional, cell-based. The conditions noted are these: Rattus norvegicus.

Regarding `Cc1noc(/C=C/N(C)C)c1S(=O)(=O)N1CCC(C(=O)O)CC1`, the EC50 in assay [1] and in assay [2] was > 300 µM (not active) each time.

Consider `CC1(OC(=O)c2ccc(Cl)nc2)C(=O)C=C2C=C(C3CC3)OC=C2C1=O` (stereo unspecified), for which the EC50 in [1] is 15.1 µM (active); in assay [2], 14.3 µM (active).

Consider `Cc1ccccc1/C=C/c1nc(O)c2ccccc2n1`, for which the EC50 in assay [3] was 1.13 µM (active).

Turning to `Cc1cc(Cl)c2oc(C(=O)N3CCC(O)(c4ccccc4)CC3)c(C)c2c1`, the EC50 was 5.13 µM (active) in [4], > 150 µM (not active) in assay [5] and 14.8 µM (active) in assay [6].

Consider `C/C(NCc1ccco1)=C1\C(=O)NC(=O)N(c2ccccc2)C1=O`, for which the AC50 in [7] is 39.8 µM (inconclusive).

As for `CC(C)c1ccc(NC(=O)NC(C)c2ccc3c(c2)OCO3)cc1` (stereo unspecified), the EC50 in assay [4], in assay [5] and in [6] was > 150 µM (not active) in each case.

With `CC(C)CCC(CCNCc1ccccn1)c1ccc(Cl)cc1` (stereo unspecified), the EC50 was 7.65 µM (active) in [4], > 150 µM (not active) in assay [5] and 132 µM (active) in assay [6].

On to `COC(=O)CCCC1=CC2=CC(=O)C(C)(O)C(=O)C2=CO1` (stereo unspecified), for which the EC50 in assay [1] was > 300 µM (not active); in [2], 29 µM (active).

As for `C=CCNC(=S)Nc1cc(Cl)ccc1OC`, the EC50 in assay [1] and in assay [2] was > 300 µM (not active) in each case.

Turning to `CC(C)CC(=O)NC(N=C(S)Nc1sc2c(c1C#N)CCCC2)C(Cl)(Cl)Cl` (stereo unspecified), the EC50 was 3.06 µM (active) in assay [4], 3.23 µM (active) in assay [5] and 6.32 µM (active) in assay [6]. The AC50 in assay [8] was 0.974 µM (active).

Regarding `CCc1ccc(-c2ccc3nnc(SCC(N)=O)n3n2)cc1`, the EC50 in assay [4] was 1.83 µM (active); in assay [5], > 150 µM (not active); in assay [6], 18.6 µM (active).

Take `O=c1c(F)cn(C2CCCO2)c(=O)n1Cc1c(F)cccc1Cl` (stereo unspecified): the EC50 was > 150 µM (inactive) in assay [9] and > 38 µM (not active) in assay [10].

In the case of `CS(=O)(=O)Nc1ccc(C2=NN(C(=O)C3CCCCC3)C(c3cccs3)C2)cc1` (stereo unspecified), the EC50 in [4] was 4.11 µM (active); in assay [5], > 150 µM (not active); in assay [6] it was 6.38 µM (active).

In the case of `CCOC(=O)c1ccc(Oc2nc(NC(C)(C)C)nc(N(C)C)n2)cc1`, the EC50 in [9] was > 150 µM (inactive); in [10], > 38 µM (not active).

Regarding `Cc1ccc(Cn2c(=N)c(C(=O)NCC3CCCO3)cc3c(=O)n4ccccc4nc32)cc1` (stereo unspecified), the EC50 in assay [1] and in [2] was > 300 µM (not active) throughout.

With `COc1cccc(C(=O)NNC(=O)c2ccccc2Br)c1`, the values for the EC50 in assay [9] and in assay [10] were > 150 µM (inconclusive) and > 38 µM (not active), respectively.

In the case of `Cn1c(SCc2ccccc2)nnc1-c1ccc2c(c1)OCO2`, the figures for the EC50 in [11] and in [3] were 95.9 µM (active) and 29.8 µM (inconclusive), respectively.

For `CCOC(=O)c1c(NC(=S)N2CCN(C)CC2)sc(C)c1-c1ccccc1`, the EC50 in assay [5] is 22.4 µM (active).

With `O=C1Nc2cc(C(=O)N3CCN(c4ccccn4)CC3)ccc2S/C1=C\c1ccccc1`, the results for the EC50 in assay [4], in assay [5] and in [6] were 3.55 µM (active), > 150 µM (not active) and 18.2 µM (active), respectively.

Regarding `Cc1nn(-c2ccccc2)c(N2CCCC2)c1/C=C1\N=C(c2ccc(F)cc2)OC1=O`, the EC50 in [1] was > 300 µM (inconclusive); in assay [2] it was 56.7 µM (active).

Consider `COc1ccc(-c2cc(C(=O)N3CC4(C)CC3CC(C)(C)C4)no2)cc1` (stereo unspecified), for which the AC50 in [8] was 0.442 µM (active).

Turning to `O=C(NCc1nc(-c2ccc(C(F)(F)F)cc2)no1)Nc1ccc(OC(F)(F)F)cc1`, in assay [8], the AC50 is 2.68 µM (active).

As for `Brc1ccc(CN2CCN(Cc3c[nH]c4ccccc34)CC2)cc1`, in assay [12], the AC50 is 6.68 µM (active).

As to `COc1ccc(S(=O)(=O)n2ccc(-c3cnc(-c4ccccc4)s3)n2)cc1`, the results for the EC50 in assay [11] and in [3] were > 120 µM (not active) and 41.2 µM (active), respectively.

Regarding `Cc1ccccc1Oc1nc(-c2ccccn2)nc2ccccc12`, the EC50 was 12.4 µM (active) in assay [4], > 150 µM (not active) in [5] and 18.5 µM (active) in assay [6]. The AC50 in assay [12] was 2.19 µM (active).

In the case of `CCCCc1nc(NCc2ccccc2)c(C#N)c2c1CCCC2`, the EC50 in assay [4] is 9.14 µM (active); in assay [5], 2.96 µM (active); in assay [6] it was 19.1 µM (active).

`CCn1cc(C(=O)NCc2ccccn2)c(=O)c2cc(S(=O)(=O)N3CCCCC3)ccc21`: the EC50 was 154 µM (active) in assay [1] and 102 µM (active) in assay [2].

For `c1nc(NCc2ccc3c(c2)OCO3)c2cc(-c3ccc4c(c3)OCCO4)ccc2n1`, in assay [12], the AC50 is 10.4 µM (active).

Regarding `COc1ccc(OC)c(C(=O)CSc2nccc(-c3ccc(Br)cc3)n2)c1`, the AC50 in assay [8] is 1.33 µM (active).

In the case of `CC1=NN(C(N)=S)C(=O)C1N=Nc1c(Cl)cc([N+](=O)[O-])cc1Cl` (stereo unspecified), the EC50 in assay [1] was > 300 µM (not active); in assay [2], 85.9 µM (active).

Take `COc1ccc(Nc2nnc(-c3ccccc3)c3ccccc23)cc1C(=O)N1CCCCC1`: in [8], the AC50 was 31.2 µM (active).

`CSc1nnc(N2C(=O)C(O)=C(C(=O)c3ccco3)C2c2ccccc2)s1` (stereo unspecified): the EC50 in assay [1] is > 300 µM (inconclusive); in [2], 76.6 µM (active).

Turning to `Oc1c(C(c2ccccn2)N2CCC(Cc3ccccc3)CC2)cc(Cl)c2cccnc12` (stereo unspecified), the EC50 in [9] was 13.9 µM (inconclusive); in assay [10] it was 1.46 µM (active).

With `O=C(CN1C(=O)S/C(=C\c2ccccn2)C1=O)Nc1ccccc1`, the EC50 in assay [9] was 89.4 µM (active); in assay [10], > 38 µM (not active).

As for `COc1ccc(OC)c(-c2csc(NC(=O)c3ccc(F)cc3)n2)c1`, the AC50 in assay [8] is 2.38 µM (active).

On to `COc1ccc(C2C(C#N)=C(N)OC3=C2C(=O)CCC3)cc1OC` (stereo unspecified), for which the EC50 in assay [1] and in assay [2] was > 300 µM (not active) each time.

Turning to `C1=C(c2ccccc2)Nc2nnnn2C1c1cccs1` (stereo unspecified), the EC50 in assay [1] and in assay [2] was > 300 µM (not active) in each case.

In the case of `O=C(O)c1cc(O)ccc1NC(=O)C(c1ccccc1)c1ccccc1`, the AC50 in [8] is > 195 µM (inactive).

Turning to `COC(=O)c1ccc(-n2c(C)cc(/C=N/n3cnnc3)c2C)cc1`, the EC50 in assay [1] and in assay [2] was > 300 µM (not active) each time.

As to `COc1cc(/C=N/Nc2ccc(F)cc2F)cc(OC)c1OC`, the values for the EC50 in assay [9] and in [10] were 20.8 µM (active) and > 38 µM (not active), respectively.

In the case of `CC(C)CC(NC(=O)C(NC(=O)C(Cc1ccc(OCc2ccccc2)cc1)NC(=O)OC(C)(C)C)C(C)C)C(N)=O` (stereo not drawn) (Boc-Tyr(Bn)-Val-Leu-NH2; configuration not given here), the AC50 in assay [8] was 24.4 µM (active).
